Laboratory results published in patent US11230548B2, “Prodrugs of fumarates and their use in treating various diseases” (Alkermes Pharma Ireland Limited, priority 2013, dated 2022).
Structures can show the parent of a compound that is named as a salt.

assay: Aqueous chemical stability in phosphate buffer (HPLC, first-order decay); assay type: physicochemical; conditions: half-life of the compound in buffer phosphate (100 mM), pH 8, 37° C., half-lives >360 min estimated from initial slope at low conversion (<10%)
Protocol: Stock solutions of the compounds in acetonitrile or acetonitrile/methanol were prepared at 20 mg/mL. and 20 μL, spiked into 3 mL of buffer phosphate (100 mM) and incubated at 37° C. Aliquots (50 μL) were sampled at different time points and diluted 20 fold with ammonium formate (pH 3.5)/acetonitrile. The diluted samples were analyzed by HPLC. The peak areas corresponding to the compounds were plotted against time and the data were fitted to a first-order mono-exponential decay where the rate constant and the half-life were determined (Table 2).

For COC(=O)/C=C/C(=O)OCCS(C)(=O)=O [Compound 10, Methyl (2-(methyl sulfonyl)ethyl) fumarate], which “pH 8 (t½, min)” value is on record?
The value was 67.0 min.

For COC(=O)/C=C/C(=O)OCCN1CCS(=O)(=O)CC1 [Compound 11, 2-(1,1-dioxidothiomorpholino)ethyl methyl fumarate hydrochloride], which “pH 8 (t½, min)” value is on record?
The value was over 240 min.

For COC(=O)/C=C/C(=O)OCC(C)(C)N(C)C [Compound 9, 2-(dimethylamino)-2-methylpropyl methyl fumarate hydrochloride], which “pH 8 (t½, min)” value is on record?
The value was 7.0 min.

For COC(=O)/C=C/C(=O)OCCN(C)c1ccccc1 [Compound 12, Methyl (2-(methyl(phenyl)amino)ethyl) fumarate hydrochloride], which “pH 8 (t½, min)” value is on record?
The value was 396 min.

With COC(=O)/C=C/C(=O)OCCN1C(=O)CCC1=O [Compound 14, 2-(2,5-dioxopyrrolidin-1-yl)ethyl methyl fumarate] as the compound, how does the “pH 8 (t½, min)” value read?
Its value is 144 min.

Which “pH 8 (t½, min)” value does the source give for COC(=O)/C=C/C(=O)OCCNc1ccccc1 [Compound 8, Methyl (2-(phenylamino)ethyl) fumarate hydrochloride] here?
Its value is 36.0 min.

For COC(=O)/C=C/C(=O)OCCN1CCOCC1 [Compound 16, Methyl (2-morpholinoethyl) fumarate hydrochloride], which “pH 8 (t½, min)” value is on record?
Its value is 20.0 min.

For COC(=O)/C=C/C(=O)OC(C)CN(C)C (stereo not drawn) [Compound 6, 1-(dimethylamino)propan-2-yl methyl fumarate hydrochloride], which “pH 8 (t½, min)” value is on record?
The value was 2.0 min.

For COC(=O)/C=C/C(=O)OCCN(C)C [Compound 19, 2-(dimethylamino)ethyl methyl fumarate hydrochloride], which “pH 8 (t½, min)” value is on record?
Its value is 6.0 min.

For COC(=O)/C=C/C(=O)OCCN1CCCCC1 [Compound 15, Methyl (2-(piperidin-1-yl)ethyl) fumarate hydrochloride], which “pH 8 (t½, min)” value is on record?
The value was 3.0 min.

For CCN(CC)CCOC(=O)/C=C/C(=O)OC [Compound 20, 2-(diethylamino)ethyl methyl fumarate hydrochloride], which “pH 8 (t½, min)” value is on record?
The value was 5.0 min.

Which “pH 8 (t½, min)” value does the source give for COC(=O)/C=C/C(=O)OCCN1CCC2(CC1)OCCO2 [Compound 17, 2-(1,4-dioxa-8-azaspiro[4.5]decan-8-yl)ethyl methyl fumarate hydrochloride] here?
Its value is 11.0 min.

With COC(=O)/C=C/C(=O)OCCN1CCCC1 [Compound 18, Methyl (2-(pyrrolidin-1-yl)ethyl) fumarate hydrochloride] as the compound, how does the “pH 8 (t½, min)” value read?
Its value is 5.0 min.

With CCN(CC)C(=O)COC(=O)/C=C/C(=O)OC [Reference Compound A, 2-(diethylamino)-2-oxoethyl methyl fumarate, reference compound] as the compound, how does the “pH 8 (t½, min)” value read?
The value was 120 min.

Which “pH 8 (t½, min)” value does the source give for COC(=O)/C=C/C(=O)OCCN1CCSCC1 [Compound 7, Methyl (2-thiomorpholinoethyl) fumarate hydrochloride] here?
Its value is 26.0 min.
